Data on twelve compounds can be found in PubChem BioAssay (NCI).

Values joined by “and” are separate entries in the source; they are usually repeats but may differ in a detail not shown here. Equal entries are not always repeated.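 Each compound was tested at five concentrations against cells in 96-well plates for 48 hours. GI50 = concentration required for 50% inhibition of growth. TGI: total growth inhibition.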

Some test systems named below: U251 CNS; MCF7 breast; OVCAR-3 ovarian; HT29 colon; K-562 leukemia; OVCAR-5 ovarian; NCI-H522 lung; KM12 colon; A498 renal; MDA-MB-231 breast; M14 melanoma.
Assay in all cases: DTP human tumour cell line panel, 48 h

By TGI is commonly meant the concentration at which net growth stops. A higher TGI goes with lower sensitivity of the cells. With `Cc1ccc(C(C)(C)C[P+](C)(c2ccccc2)c2ccccc2)cc1`, the total growth inhibition concentration (TGI) was above 100 µM in the test with U251 CNS; above 81.2 µM with MCF7 breast; 22.2 µM in the test on OVCAR-3 ovarian; 43.8 µM in the test with HT29 colon; 46 µM in the test on K-562 leukemia; above 100 µM with OVCAR-5 ovarian. The results for the total growth inhibition concentration (TGI) with NCI-H522 lung, with KM12 colon and in the test on A498 renal were 19.1 µM, above 45.7 µM and above 100 µM, respectively.
As a reminder, the GI50 is the concentration that inhibits growth by half. Consider `Clc1ccc(N2N=C(c3cccc(Nc4ccncc4)c3)CC2c2ccc3c(c2)OCO3)cc1` (stereo not given), for which the GI50 in the test with OVCAR-3 ovarian was 1.63 µM; in the test with HT29 colon it was 2.44 µM; with K-562 leukemia, 2.09 µM; with MDA-MB-231 breast it was 1.29 µM; in the test with OVCAR-5 ovarian, 2.11 µM; in the test with KM12 colon, 1.67 µM. Also, the TGI stood at 3.07 µM in the test on OVCAR-3 ovarian; 6.55 µM in the test on HT29 colon; 5.39 µM in the test on K-562 leukemia; 2.64 µM in the test on MDA-MB-231 breast; 5.69 µM with OVCAR-5 ovarian; 3.18 µM in the test on KM12 colon.
For the compound `C/C(=N\NC(=S)N1CCCCC1)c1cccc(C)n1`, the TGI with U251 CNS is 11.5 µM; with OVCAR-3 ovarian, 12.1 µM; in the test on HT29 colon it was 16.2 µM; in the test with M14 melanoma, 0.394 µM; with K-562 leukemia it was above 73.8 µM; in the test with MDA-MB-231 breast, 16.5 µM. For the same compound, the TGI with OVCAR-5 ovarian was found to be 21.1 µM; in the test on NCI-H522 lung it was 10.6 µM; in the test on KM12 colon, 17.5 µM; with A498 renal, 0.607 µM.
In the case of `Cn1nc2n(c1=O)CCCN2`, the TGI in the test with U251 CNS, in the test with OVCAR-3 ovarian, in the test with HT29 colon, in the test with K-562 leukemia, in the test on MDA-MB-231 breast and in the test with OVCAR-5 ovarian was above 100 µM throughout. Besides, the total growth inhibition concentration (TGI) with NCI-H522 lung, in the test on KM12 colon and in the test on A498 renal was above 100 µM in each case.
As to `CCOC(=O)c1c(N2CCCC2)ncn(-c2ccccc2)c1=S`, the TGI in the test on U251 CNS, in the test on OVCAR-3 ovarian, with HT29 colon, in the test on M14 melanoma, in the test on K-562 leukemia and with OVCAR-5 ovarian was above 100 µM in each case. Also, the TGI with NCI-H522 lung, with KM12 colon and in the test with A498 renal was above 100 µM in each case.
On to `Nc1ncnc2c1ncn2C1CCC(COS(N)(=O)=O)C1` (stereo not given), for which the TGI with U251 CNS, with MCF7 breast, in the test on OVCAR-3 ovarian, in the test with HT29 colon, with M14 melanoma and in the test with K-562 leukemia was above 100 µM throughout. For the same compound, the TGI in the test on MDA-MB-231 breast, in the test on OVCAR-5 ovarian and in the test on KM12 colon was above 100 µM each time.
As for `O=[N+]([O-])c1ccc2nc(-c3ccccn3)c(-c3ccccn3)nc2c1`, the TGI in the test with U251 CNS, with MCF7 breast, in the test with OVCAR-3 ovarian, in the test on HT29 colon, in the test on M14 melanoma and with OVCAR-5 ovarian was above 100 µM each time. Moreover, the concentration for total growth inhibition (TGI) with NCI-H522 lung, in the test on KM12 colon and in the test with A498 renal was above 100 µM each time.
Turning to `[Cl][Pt+2][Cl].[NH-]C1CCCCC1[NH-]` (stereo not given), the GI50 in the test with U251 CNS was 21 µM and 9.15 µM and 13.2 µM; with OVCAR-3 ovarian it was 9.42 µM and 6.62 µM and 2.98 µM; in the test with NCI-H522 lung it was 3.31 µM and 5.88 µM and 1.49 µM; with KM12 colon, 80.6 µM and > 72.1 µM and 10.6 µM; in the test with A498 renal it was > 100 µM and 12.6 µM. The total growth inhibition concentration (TGI) with U251 CNS is above 100 µM; with MCF7 breast, > 37 µM and > 100 µM and 10.1 µM; in the test with OVCAR-3 ovarian, > 59.4 µM and > 47.2 µM and 20.8 µM; in the test on HT29 colon it was > 100 µM and 31 µM; in the test on K-562 leukemia, > 100 µM and 17.8 µM; in the test on OVCAR-5 ovarian, 78.4 µM and > 100 µM and 14.3 µM. Besides, the TGI is 20.7 µM and 38.2 µM and 12.4 µM in the test on NCI-H522 lung; above 100 µM in the test with KM12 colon; > 100 µM and 65.3 µM in the test on A498 renal.
Take `COC(=O)C1CCC(=O)N1C(=O)Cc1ccc(OC)cc1` (stereo not given): the TGI in the test on U251 CNS, with OVCAR-3 ovarian, in the test with HT29 colon, in the test with M14 melanoma, with OVCAR-5 ovarian and in the test on NCI-H522 lung was above 100 µM throughout. Besides, the TGI in the test on KM12 colon and in the test on A498 renal was above 100 µM in each case.
With `Cc1ccccc1-n1c(C)nc2c1C(=O)c1ccccc1C2=O`, the total growth inhibition concentration (TGI) in the test on U251 CNS is above 100 µM; in the test with OVCAR-3 ovarian, 61.8 µM; in the test on HT29 colon, above 100 µM; with M14 melanoma, above 100 µM; with K-562 leukemia, above 100 µM; in the test on OVCAR-5 ovarian, above 100 µM. For the same compound, the results for the TGI with NCI-H522 lung, in the test with KM12 colon and with A498 renal were 68.3 µM, above 100 µM and above 100 µM, respectively.
As to `Nc1cccc2c1C(=O)c1cccc(N)c1C2=O`, the TGI in the test on U251 CNS, in the test with OVCAR-3 ovarian, in the test on HT29 colon, in the test on M14 melanoma, with K-562 leukemia and in the test with OVCAR-5 ovarian was above 100 µM in each case. Also, the TGI with NCI-H522 lung, in the test on KM12 colon and in the test on A498 renal was above 100 µM each time.
With `CC(=O)/C(=C/n1c(=S)[nH]c2ccccc21)C(=O)Nc1ccccc1C`, the TGI in the test with U251 CNS, with OVCAR-3 ovarian, in the test on HT29 colon, with M14 melanoma, in the test with MDA-MB-231 breast and with OVCAR-5 ovarian was above 100 µM each time. The concentration for total growth inhibition (TGI) with KM12 colon and in the test with A498 renal was above 100 µM each time.
